Assay results: US20100137373A1, “PESTICIDAL COMPOSITION COMPRISING A STR[…] AN I[…]” (priority 2007, published 2010)

Assays:
[1] = tested on: Phaedon cochleariae; assay: Phaedon cochleariae test (cabbage leaf dip, larvae mortality); type: in vivo; settings: foliar, 96 h, single compound, dipped cabbage leaves infested with larvae, after 4 d
Description: (§1) The expected efficacy of a given combination of two compounds is calculated as follows (see Colby, S. R., “Calculating Synergistic and antagonistic Responses of Herbicide Combinations”, Weeds 15, pp. 20-22, 1967):
(§2) X is the efficacy expressed in % mortality of the untreated control for test compound A at a concentration of m ppm respectively m g/ha,
(§3) Y is the efficacy expressed in % mortality of the untreated control for test compound B at a concentration of n ppm respectively n g/ha,
(§4) E is the efficacy expressed in % mortality of the untreated control using the mixture of A and B at m and n ppm respectively m and n g/ha,
(§5) If the observed insecticidal efficacy of the combination is higher than the one calculated as “E”, then the combination of the two compounds is more than additive, i.e., there is a synergistic effect.
(§6) Solvent: 7 parts by weight of dimethylformamide
(§7) Emulsifier: 2 parts by weight of alkylaryl polyglycolether
To produce a suitable preparation of active compound, 1 part by weight of active compound is mixed with the stated amount of solvent and emulsifier, and the concentrate is diluted with emulsifier-containing water to the desired concentration.
Cabbage leaves (Brassica oleracea) are treated by being dipped into the preparation of the active compound of the desired concentration and are infested with larvae of the mustard beetle (Phaedon cochleariae) as long as the leaves are still moist.
After the specified period of time, the mortality in % is determined. 100% means that all the beetle larvae have been killed; 0% means that none of the beetle larvae have been killed.

[2] = tested on: Myzus persicae; assay: Myzus persicae test (cabbage leaf dip, mortality); type: in vivo; settings: foliar, 96 h, single compound, infested cabbage leaves dipped, after 4 d
Description: as §1, §2, §3, §4, §5, §6, §7
To produce a suitable preparation of active compound, 1 part by weight of active compound is mixed with the stated amount of solvent and emulsifier, and the concentrate is diluted with emulsifier-containing water to the desired concentration. […]
After the specified period of time, the mortality in % is determined. […]

Row | SMILES | mortality at 3e-06 ppm ([1]; 0.000003 ppm) [%] | mortality at 3e-05 ppm ([1]; 0.00003 ppm) [%] | mortality at 3e-06 ppm ([2]; 0.000003 ppm) [%] | mortality at 20 ppm ([1]; 20 ppm) [%] | mortality at 0.16 ppm ([2]; 0.16 ppm) [%]
1 | CC1=CC(O/C=C2/C(=O)OC3c4ccccc4CC23)OC1=O (centres unmarked) [Compound A] | 0 | 0 | 0 |  | 
2 | O=[N+]([O-])NC1=NCCN1Cc1ccc(Cl)nc1 [Imidacloprid, reference compound] |  |  |  | 70 | 10
